From article PMC4045409 (Biochemical and biophysical research communications, 2011)

Tests used:
α1D-AR + β1-syntrophin [1] = target: T1, α1D-AR + β1-syntrophin (Homo sapiens, UniProt P25100); test: [3H]-PI hydrolysis, HEK293 cells, agonist; format: cell-based
T1 sequence (P25100 1-572): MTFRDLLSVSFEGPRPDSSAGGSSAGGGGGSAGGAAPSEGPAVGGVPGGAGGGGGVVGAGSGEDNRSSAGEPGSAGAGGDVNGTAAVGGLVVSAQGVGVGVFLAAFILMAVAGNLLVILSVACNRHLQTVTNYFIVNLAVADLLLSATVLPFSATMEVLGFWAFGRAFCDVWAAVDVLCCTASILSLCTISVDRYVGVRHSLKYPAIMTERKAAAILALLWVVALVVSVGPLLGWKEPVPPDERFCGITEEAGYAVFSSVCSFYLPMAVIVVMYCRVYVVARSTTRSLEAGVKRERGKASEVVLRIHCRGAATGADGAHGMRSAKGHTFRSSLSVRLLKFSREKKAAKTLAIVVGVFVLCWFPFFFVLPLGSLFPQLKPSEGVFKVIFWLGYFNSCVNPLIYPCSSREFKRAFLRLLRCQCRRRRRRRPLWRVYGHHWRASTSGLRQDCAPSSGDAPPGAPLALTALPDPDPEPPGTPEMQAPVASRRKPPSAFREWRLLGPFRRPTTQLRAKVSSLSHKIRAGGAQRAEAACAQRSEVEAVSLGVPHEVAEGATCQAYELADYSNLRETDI
T1 sequence (Q99L88 2-537 partner): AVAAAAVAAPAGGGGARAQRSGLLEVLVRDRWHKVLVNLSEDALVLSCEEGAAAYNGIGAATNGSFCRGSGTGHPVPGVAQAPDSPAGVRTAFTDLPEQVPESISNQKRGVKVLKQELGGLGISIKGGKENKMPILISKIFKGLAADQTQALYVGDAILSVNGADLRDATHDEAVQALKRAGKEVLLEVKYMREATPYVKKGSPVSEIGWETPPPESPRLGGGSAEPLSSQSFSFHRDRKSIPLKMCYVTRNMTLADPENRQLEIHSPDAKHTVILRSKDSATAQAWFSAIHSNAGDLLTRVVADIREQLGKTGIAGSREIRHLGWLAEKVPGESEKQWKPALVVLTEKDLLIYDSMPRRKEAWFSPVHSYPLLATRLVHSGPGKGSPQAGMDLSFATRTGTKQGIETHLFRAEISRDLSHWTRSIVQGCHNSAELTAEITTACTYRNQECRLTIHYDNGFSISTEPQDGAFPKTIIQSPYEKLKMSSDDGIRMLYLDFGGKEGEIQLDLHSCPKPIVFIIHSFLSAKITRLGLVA

α1D-AR + α-syntrophin [2] = target: T2, α1D-AR + α-syntrophin (Homo sapiens, UniProt P25100); test: [3H]-PI hydrolysis, HEK293 cells, agonist; format: cell-based
T2 sequence (P25100 1-572): T1 sequence (P25100 1-572)
T2 sequence (Q61234 1-503 partner): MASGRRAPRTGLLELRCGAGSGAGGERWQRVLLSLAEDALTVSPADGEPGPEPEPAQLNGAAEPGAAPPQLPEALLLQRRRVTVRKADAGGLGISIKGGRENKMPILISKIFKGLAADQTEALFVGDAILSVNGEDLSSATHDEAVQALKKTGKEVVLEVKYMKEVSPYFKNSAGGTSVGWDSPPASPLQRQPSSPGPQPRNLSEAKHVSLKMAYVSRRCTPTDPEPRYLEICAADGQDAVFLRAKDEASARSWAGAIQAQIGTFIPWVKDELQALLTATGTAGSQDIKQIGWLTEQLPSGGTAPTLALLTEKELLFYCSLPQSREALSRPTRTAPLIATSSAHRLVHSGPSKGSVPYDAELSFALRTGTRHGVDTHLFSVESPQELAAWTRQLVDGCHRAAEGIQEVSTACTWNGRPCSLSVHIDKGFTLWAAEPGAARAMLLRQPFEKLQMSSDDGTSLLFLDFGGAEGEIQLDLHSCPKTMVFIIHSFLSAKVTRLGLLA

α1D-AR + β2-syntrophin [3] = target: T3, α1D-AR + β2-syntrophin (Homo sapiens, UniProt P25100); test: [3H]-PI hydrolysis, HEK293 cells, agonist; format: cell-based
T3 sequence (P25100 1-572): T1 sequence (P25100 1-572)
T3 sequence (Q61235 1-520 partner): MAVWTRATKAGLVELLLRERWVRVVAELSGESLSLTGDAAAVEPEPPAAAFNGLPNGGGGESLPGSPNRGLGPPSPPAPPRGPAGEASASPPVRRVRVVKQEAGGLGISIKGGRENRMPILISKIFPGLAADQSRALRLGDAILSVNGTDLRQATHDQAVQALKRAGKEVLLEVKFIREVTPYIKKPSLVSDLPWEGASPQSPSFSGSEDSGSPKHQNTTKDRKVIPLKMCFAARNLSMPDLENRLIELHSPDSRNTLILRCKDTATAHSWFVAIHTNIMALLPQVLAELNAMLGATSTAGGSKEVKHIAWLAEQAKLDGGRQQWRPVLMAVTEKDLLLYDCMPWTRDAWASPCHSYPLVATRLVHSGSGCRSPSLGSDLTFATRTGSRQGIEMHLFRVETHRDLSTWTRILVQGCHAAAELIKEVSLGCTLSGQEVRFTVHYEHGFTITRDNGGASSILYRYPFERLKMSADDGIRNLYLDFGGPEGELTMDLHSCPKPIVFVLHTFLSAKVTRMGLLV

α1D-AR + β1-syntrophin [4] = target: T1, α1D-AR + β1-syntrophin; test: [3H]-prazosin competition, HEK293 membranes; format: binding
α1D-AR + β2-syntrophin [5] = target: T3, α1D-AR + β2-syntrophin; test: [3H]-prazosin competition, HEK293 membranes; format: binding
α1D-AR + α-syntrophin [6] = target: T2, α1D-AR + α-syntrophin; test: [3H]-prazosin competition, HEK293 membranes; format: binding
[7] = 1 nM [3H]-prazosin, 30 min, 37 °C, value is -log10 of KI in M, single site

Row | Structure (SMILES) | EC50 (α1D-AR + β1-syntrophin [1]) | EC50 (α1D-AR + α-syntrophin [2]) | EC50 (α1D-AR + β2-syntrophin [3]) | further results
1 | CNCC(O)c1ccc(O)c(O)c1 (racemic) [(+/−) Epinephrine] | 13.8 nM | 15.8 nM | 35.5 nM | –
2 | COc1ccccc1N1CCN(CCCNc2c(C)c(=O)n(C)c(=O)n2C)CC1 [5-MU] | – | – | – | Ki (α1D-AR + β1-syntrophin [4]): 23.4 nM; Ki (α1D-AR + β2-syntrophin [5]): 36.3 nM; Ki (α1D-AR + α-syntrophin [6]): 27.5 nM
3 | CNC[C@H](O)c1cccc(O)c1 [(−) Phenylephrine] | 155 nM | 67.6 nM | 126 nM | –
4 | CCS(=O)(=O)Nc1cccc(C(=C2CCCCC2)c2cnc[nH]2)c1 [A-315456] | – | – | – | +β1-syntrophin (α1D-AR + β1-syntrophin [4]; [7]): 7.27 ± 0.08 M; +β2-syntrophin (α1D-AR + β2-syntrophin [5]; [7]): 7.42 ± 0.21 M; +α-syntrophin (α1D-AR + α-syntrophin [6]; [7]): 7.25 ± 0.13 M
